These are literature values, as cited in EP2133696A1, “Very low concentrations of troponin I or T for assessing a cardiovascular risk with respect to the administration of anti-inflammatory drugs” (Spanuth, Eberhardt, priority 2008, dated 2009).

`CS(=O)(=O)c1ccc(C2=C(c3ccccc3)C(=O)OC2)cc1` [Rofecoxib]: the “additional cardiovascular incidents (myocardial infarction, stroke)” value (25 mg rofecoxib compared with a placebo, after 18 months of follow-up) is 16 per 1,000 treated patients. Besides, the blood pressure levels result (25 mg rofecoxib versus placebo, early post-observation phase) is “higher blood pressure levels”. Besides, for the setting “APPROVE study, led to premature discontinuation, patients without any recognisable cardiovascular risk”, the “rise in the rate of serious thromboembolic incidents” value is listed as 3.9 times.
